{"source": "patent US20030170662A1", "about": "“Method for screening substance specifically inhibiting non-mevalonate pathway” (priority 2000, published 2003)", "key": {"B. subtilis 168 (pBMV4)": {"test_system": "B. subtilis 168 (pBMV4)", "test": "paper disk growth inhibition on agar medium, B. subtilis 168 (pBMV4)", "type": "cell-based, Bacillus subtilis", "conditions": "50 μl of 5 μg/ml fosmidomycin on paper disk, 37° C. overnight", "procedure": "The B. subtilis 168 (pBMV4) was subjected to shaking culturing at 37° C. overnight in 5 ml of LB liquid medium containing 3.4 μg/ml chloramphenicol. […]\nThe gene on the pBMV4 is expressed only in the presence of IPTG 50 μl of aqueous solution of 5 μg/ml fosmidomycin was dropped on a paper disk, and then the paper disk was placed on the above two types of agar mediums, followed by culturing at 37° C. overnight."}, "[1]": {"test_system": "B. subtilis delypgA (pBMV4)", "test": "paper disk growth inhibition on agar medium, B. subtilis delypgA (pBMV4)", "type": "cell-based, Bacillus subtilis", "conditions": "50 μl of 5 μg/ml fosmidomycin on paper disk, 37° C. overnight", "procedure": "The B. subtilis delypgA (pBMV4) was subjected to shaking culturing at 37° C. overnight in 5 ml of LB liquid medium containing 3.4 μg/ml chloramphenicol.\nOne thousandth amount of the above culture solution was added into Nutrient Broth “Eiken” (Eiken Chemical Co., Ltd.) containing 3.4 μg/ml chloramphenicol to prepare an agar medium.\nOne thousandth amount of the above culture solution was added into Nutrient Broth “Eiken” containing 1 mM IPTG, 3.4 μg/ml chloramphenicol and 0.02% mevalonic acid to prepare an agar medium. The gene on the pBMV4 is expressed only in the presence of IPTG\n50 μl of aqueous solution of 5 μg/ml fosmidomycin was dropped on a paper disk, and then the paper disk was placed on the above two types of agar mediums, followed by culturing at 37° C. overnight."}, "[2]": {"conditions": "medium to which mevalonic acid and IPTG were added"}, "[3]": {"conditions": "medium to which mevalonic acid and IPTG were not added"}}}
{"molecule": "O=CN(O)CCCP(=O)(O)O", "note": "[fosmidomycin]", "values": [{"measurement": "growth inhibition ring", "setting": "B. subtilis 168 (pBMV4); [2]", "value": "not observed"}, {"measurement": "growth inhibition ring", "setting": "B. subtilis 168 (pBMV4); [3]", "value": "observed"}, {"measurement": "growth inhibition ring", "setting": "[1]; [2]", "value": "not observed"}, {"measurement": "growth inhibition ring", "setting": "[1]; [3]", "value": "observed"}]}
